We go through 25 compounds from patent US20250051319A1 (AUGUSTINE THERAPEUTICS, priority 2021, published 2025).

Assay [1] addresses catalytic domain 2 (CD2) of HDAC6 (Homo sapiens (Human), UniProt Q9UBN7). Description: Cellular target engagement assay - NanoBRET. Type of assay: cell-based. Particulars: NanoLuc-HDAC6(CD2) in HEK293T cells, 2 hours, read-out: IC50 (HDAC6(CD2) interaction). A general note: BRET reads energy transfer from a luciferase to a nearby fluorophore.
For assay [2], the target named is human full-length recombinant HDAC6 (Homo sapiens (Human), UniProt Q9UBN7). Description: HDAC6 enzymatic activity assay (alternative protocol, Ac-Gly-Ala-Lys(Ac)-AMC). The format is biochemical. As to conditions: 5 nM enzyme, read-out: HDAC6 biochem. How it is done:
(§1) Inhibition of HDAC enzymes was performed in 384-well plate format using human full-length recombinant HDAC1 and HDAC6, isolated from a baculovirus expression system in Sf9 cells (BPS Bioscience). Reaction buffer for HDAC1 contained 50 mM Tris HCl pH 8.0, 137 mM NaCl, 2.7 mM KCl, 1 mM MgCl2, 0.1 mg/mL BSA, and reaction buffer for HDAC6 contained 50 mM Tris/HCl, pH 8.0, 137 mM NaCl, 2.7 mM KCl, 250 μM EDTA, 1 mM DTT, 0.1 mg/mL BSA. Compounds (dissolved in 100% DMSO) or DMSO (vehicle) were diluted in assay buffer at 3× final assay concentration and then added to assay plates. SAHA ([…]) was used as a positive control. 3× final assay concentration of recombinant enzymes (final assay concentration is 4 nM and 5 nM for HDAC1 and HDAC6, respectively) were preincubated for 10 minutes with test compounds at room temperature. Afterwards, 3× final assay concentration of an acetylated fluorogenic peptide (Ac-Gly-Ala-Lys(Ac))-AMC, Bachem; final assay concentration is 12 µM and 40 µM for HDAC1 and HDAC6, respectively) was added to assay plate, allowing deacetylase reactions to incubate for 60 minutes at room temperature. The developer reagent containing 5 μM SAHA and 50 μM trypsin was added to stop the deacetylase reaction and generate AMNC-fluorescence. 15 minutes after addition of developer reagent, endpoint measurements were taken using CLARIOstar (BMG Labtech) plate reader (excitation/emission: 360/450). Fluorescence signals were normalized for each plate using GraphPad Prism software: reaction HDAC-substrate in presence of DMSO was set to 100% while reaction HDAC-substrate in presence of 10 μM SAHA was set to 0%.

Assay [3] addresses human full-length recombinant HDAC1 (Homo sapiens (Human), UniProt Q13547). Put plainly: HDAC1 enzymatic activity assay (alternative protocol, Ac-Gly-Ala-Lys(Ac)-AMC). Type of assay: biochemical. Particulars: 4 nM enzyme, read-out: HDAC1 biochem. How it is done:
as §1

Each structure is given as a SMILES string.

human full-length recombinant HDAC6, sequence (Q9UBN7 whole entry): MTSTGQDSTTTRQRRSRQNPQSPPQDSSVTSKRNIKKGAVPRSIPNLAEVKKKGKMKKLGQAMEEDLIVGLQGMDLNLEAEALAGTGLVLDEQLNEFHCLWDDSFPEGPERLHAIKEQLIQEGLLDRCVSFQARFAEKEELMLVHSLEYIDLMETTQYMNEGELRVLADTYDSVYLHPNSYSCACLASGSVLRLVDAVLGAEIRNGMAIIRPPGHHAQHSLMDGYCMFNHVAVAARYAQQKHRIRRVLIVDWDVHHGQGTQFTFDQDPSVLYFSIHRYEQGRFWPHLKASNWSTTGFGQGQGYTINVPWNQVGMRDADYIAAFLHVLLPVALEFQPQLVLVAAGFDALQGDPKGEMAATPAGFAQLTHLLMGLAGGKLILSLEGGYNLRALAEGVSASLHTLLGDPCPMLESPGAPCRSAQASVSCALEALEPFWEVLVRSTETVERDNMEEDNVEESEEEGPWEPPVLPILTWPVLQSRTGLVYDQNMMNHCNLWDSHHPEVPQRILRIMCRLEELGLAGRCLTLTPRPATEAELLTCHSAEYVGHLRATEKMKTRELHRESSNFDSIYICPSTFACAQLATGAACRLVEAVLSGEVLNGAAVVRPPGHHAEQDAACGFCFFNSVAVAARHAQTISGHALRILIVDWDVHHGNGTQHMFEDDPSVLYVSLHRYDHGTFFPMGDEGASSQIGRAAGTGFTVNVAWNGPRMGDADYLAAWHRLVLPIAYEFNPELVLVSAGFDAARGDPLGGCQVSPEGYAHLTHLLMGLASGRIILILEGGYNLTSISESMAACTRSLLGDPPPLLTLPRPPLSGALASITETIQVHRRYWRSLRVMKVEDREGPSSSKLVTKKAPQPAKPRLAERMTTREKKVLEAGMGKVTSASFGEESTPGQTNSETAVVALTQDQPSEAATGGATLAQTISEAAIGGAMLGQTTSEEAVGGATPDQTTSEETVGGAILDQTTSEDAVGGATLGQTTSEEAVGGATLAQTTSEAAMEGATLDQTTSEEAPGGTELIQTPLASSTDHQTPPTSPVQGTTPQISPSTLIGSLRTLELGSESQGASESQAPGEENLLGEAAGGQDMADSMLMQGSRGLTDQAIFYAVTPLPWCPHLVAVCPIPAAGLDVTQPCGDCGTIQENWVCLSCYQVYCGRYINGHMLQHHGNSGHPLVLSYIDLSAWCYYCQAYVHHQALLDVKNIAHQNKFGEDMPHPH
catalytic domain 2 (CD2) of HDAC6, sequence (Q9UBN7 482-800): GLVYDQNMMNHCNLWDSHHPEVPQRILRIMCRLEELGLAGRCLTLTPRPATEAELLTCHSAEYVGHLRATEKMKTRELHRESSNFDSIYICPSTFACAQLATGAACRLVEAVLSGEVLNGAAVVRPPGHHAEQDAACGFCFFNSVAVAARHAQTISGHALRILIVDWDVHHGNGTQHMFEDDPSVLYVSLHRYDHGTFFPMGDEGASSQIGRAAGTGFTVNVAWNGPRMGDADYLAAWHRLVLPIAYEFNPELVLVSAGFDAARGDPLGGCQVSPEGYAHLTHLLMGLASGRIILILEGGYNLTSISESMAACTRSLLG
human full-length recombinant HDAC1, sequence (Q13547 whole entry): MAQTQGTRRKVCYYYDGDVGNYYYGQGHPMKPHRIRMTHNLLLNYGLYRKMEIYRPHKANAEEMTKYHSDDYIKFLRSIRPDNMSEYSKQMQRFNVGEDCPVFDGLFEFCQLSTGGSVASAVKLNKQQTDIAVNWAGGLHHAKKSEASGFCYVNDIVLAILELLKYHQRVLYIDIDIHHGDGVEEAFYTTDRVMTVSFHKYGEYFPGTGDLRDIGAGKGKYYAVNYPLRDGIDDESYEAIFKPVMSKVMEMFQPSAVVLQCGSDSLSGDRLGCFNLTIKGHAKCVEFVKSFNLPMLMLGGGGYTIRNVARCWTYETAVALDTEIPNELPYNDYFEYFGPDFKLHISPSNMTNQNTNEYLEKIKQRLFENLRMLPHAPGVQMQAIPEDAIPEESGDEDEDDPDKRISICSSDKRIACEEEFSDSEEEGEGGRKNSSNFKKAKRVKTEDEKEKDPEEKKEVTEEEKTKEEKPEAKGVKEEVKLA

With `Cn1ncc2c(SCC(=O)c3cc(F)c(CNC(=O)C(C)(C)C)s3)ncnc21` [Example 28, N-((3-fluoro-5-(2-((1-methyl-1H-pyrazolo[3,4-d]pyrimidin-4-yl)thio)acetyl)thiophen-2-yl)methyl)pivalamide], the IC50 in assay [1] is 500 to 1000 nM; in assay [2], not above 100 nM; in assay [3], more than 10000 nM.

On to `CN(Cc1ccc(C(=O)CSc2ncnc3c2cnn3C)s1)S(=O)(=O)Cc1ccncc1` [Compound 92, N-methyl-N-((5-(2-((1-methyl-1H-pyrazolo[3,4-d]pyrimidin-4-yl)thio)acetyl)thiophen-2-yl)methyl)-1-(162yrrolid-4-yl)methanesulfonamide], for which the IC50 is 100 to 500 nM in assay [1], not above 100 nM in assay [2] and 1000 to 10000 nM in assay [3].

For the compound `CC(C)(C)C(=O)NCc1ccc(C(=O)CSc2nc(C(F)(F)F)cc3ccccc23)s1` [Example 191, N-((5-(2-((3-(trifluoromethyl)isoquinolin-1-yl)thio)acetyl)thiophen-2-yl)methyl)pivalamide], the IC50 in assay [2] was 1000 to 10000 nM; in assay [3] it was more than 10000 nM.

For the compound `Cn1ncc2c(SCC(=O)c3ccc(CNC(=O)C(C)(C)C)s3)nc(C(F)(F)F)nc21` [Example 20, N-((5-(2-((1-methyl-6-(trifluoromethyl)-1H-pyrazolo[3,4-d]pyrimidin-4-yl)thio)acetyl)thiophen-2-yl)methyl)pivalamide], the IC50 in assay [1] was 100 to 500 nM; in assay [2] it was not above 100 nM; in assay [3], more than 10000 nM.

Take `Cn1ncc2c(SCC(=O)c3ccc(CNS(=O)(=O)Cc4ccccc4)s3)ncnc21` [Compound 90, N-((5-(2-((1-methyl-1H-pyrazolo[3,4-d]pyrimidin-4-yl)thio)acetyl)thiophen-2-yl)methyl)-1-phenylmethanesulfonamide]: the IC50 in assay [1] was 1000 to 10000 nM; in assay [2] it was not above 100 nM; in assay [3], more than 10000 nM.

As to `CC1CCN(Cc2ccc(C(=O)CSc3ncnc4c3cnn4C)s2)C1=O` (stereo not shown) [Example 24, 3-methyl-1-((5-(2-((1-methyl-1H-pyrazolo[3,4-d]pyrimidin-4-yl)thio)acetyl)thiophen-2-yl)methyl)pyrrolidin-2-one], the IC50 was 100 to 500 nM in assay [1], not above 100 nM in assay [2] and more than 10000 nM in assay [3].

On to `CC(C)(C)C(=O)NCc1ccc(C(=O)CSc2nnc(C(F)(F)F)c3ccccc23)s1` [Example 195], for which the values for the IC50 in assay [2] and in assay [3] were not above 100 nM and more than 10000 nM, respectively.

On to `Cn1ncc2c(SCC(=O)c3ccc(CNC(=O)Cc4ccccn4)s3)ncnc21` [Compound 55, N-((5-(2-((1-methyl-1H-pyrazolo[3,4-d]pyrimidin-4-yl)thio)acetyl)thiophen-2-yl)methyl)-2-(160yrrolid-2-yl)acetamide], for which the results for the IC50 in assay [1], in assay [2] and in assay [3] were 500 to 1000 nM, not above 100 nM and more than 10000 nM, respectively.

As for `Cn1ncc2c(SCC(=O)c3ccc(CNC(=O)C(C)(C)C)s3)nc(C(F)F)nc21` [Example 21, N-((5-(2-((6-(difluoromethyl)-1-methyl-1H-pyrazolo[3,4-d]pyrimidin-4-yl)thio)acetyl)thiophen-2-yl)methyl)pivalamide], the IC50 in assay [1] was 500 to 1000 nM; in assay [2] it was not above 100 nM; in assay [3], more than 10000 nM.

As to `Cc1nc(SCC(=O)c2ccc(CNC(=O)C(C)(C)C)s2)c2ccc(Cl)cc2n1` [Example 8, N-((5-(2-((7-chloro-2-methylquinazolin-4-yl)thio)acetyl)thiophen-2-yl)methyl)pivalamide], the figures for the IC50 in assay [1], in assay [2] and in assay [3] were 100 to 500 nM, not above 100 nM and more than 10000 nM, respectively.

As for `Cn1ncc2c(SCC(=O)c3ccc(CNC(=O)Cc4cccnc4)s3)ncnc21` [Compound 56, N-((5-(2-((1-methyl-1H-pyrazolo[3,4-d]pyrimidin-4-yl)thio)acetyl)thiophen-2-yl)methyl)-2-(160yrrolid-3-yl)acetamide], the results for the IC50 in assay [1], in assay [2] and in assay [3] were not above 100 nM, not above 100 nM and more than 10000 nM, respectively.

Regarding `Cc1nc(SCC(=O)c2ccc(CNC(=O)C(C)(C)C)s2)c2cnn(C)c2n1` [Example 5, N-((5-(2-((1,6-dimethyl-1H-pyrazolo[3,4-d]pyrimidin-4-yl)thio)acetyl)thiophen-2-yl)methyl)pivalamide], the IC50 in assay [1] was 500 to 1000 nM; in assay [2] it was not above 100 nM; in assay [3], more than 10000 nM.

Consider `CN(C)c1nc(SCC(=O)c2ccc(CNC(=O)C(C)(C)C)s2)c2ccccc2n1` [Example 16, N-((5-(2-((2-(dimethylamino)quinazolin-4-yl)thio)acetyl)thiophen-2-yl)methyl)pivalamide], for which the IC50 in assay [1] was 100 to 500 nM; in assay [2] it was not above 100 nM; in assay [3], more than 10000 nM.

Consider `COCc1nc(SCC(=O)c2ccc(CNC(=O)C(C)(C)C)s2)c2ccccc2n1` [Example 4, N-((5-(2-((2-(methoxymethyl)quinazolin-4-yl)thio)acetyl)thiophen-2-yl)methyl)pivalamide], for which the IC50 is 500 to 1000 nM in assay [1], not above 100 nM in assay [2] and more than 10000 nM in assay [3].

Turning to `CC(C)(C)C(=O)NCc1ccc(C(=O)CSc2nc(C(F)(F)F)nc3ccccc23)s1` [Example 38, N-((5-(2-((2-(trifluoromethyl)quinazolin-4-yl)thio)acetyl)thiophen-2-yl)methyl)pivalamide], the figures for the IC50 in assay [1], in assay [2] and in assay [3] were not above 100 nM, not above 100 nM and more than 10000 nM, respectively.

Regarding `Cc1nc(SCC(=O)c2ccc(CNC(=O)C(C)(C)C)s2)c2cccc(F)c2n1` [Example 15, N-((5-(2-((8-fluoro-2-methylquinazolin-4-yl)thio)acetyl)thiophen-2-yl)methyl)pivalamide], the results for the IC50 in assay [1], in assay [2] and in assay [3] were 100 to 500 nM, not above 100 nM and more than 10000 nM, respectively.

`CS(=O)(=O)N1CCC(c2ccc(C(=O)CSc3nc(C(F)(F)F)nc4ccccc34)s2)C1` (stereo not shown) [Compound 95, 1-(5-(1-(methylsulfonyl)163yrrolidine-3-yl)thiophen-2-yl)-2-((2-(trifluoromethyl)quinazolin-4-yl)thio)ethanone]: the IC50 in assay [1] is 100 to 500 nM; in assay [2], not above 100 nM; in assay [3] it was more than 10000 nM.

On to `Cc1ccc2c(SCC(=O)c3ccc(CNC(=O)C(C)(C)C)s3)nc(C)nc2c1` [Example 11, N-((5-(2-((2,7-dimethylquinazolin-4-yl)thio)acetyl)thiophen-2-yl)methyl)pivalamide], for which the IC50 is 100 to 500 nM in assay [1], not above 100 nM in assay [2] and more than 10000 nM in assay [3].

With `Cn1ncc2c(SCC(=O)c3nnc(CNC(=O)C(C)(C)C)s3)ncnc21` [Example 192, N-((5-(2-(1-methyl-1H-pyrazolo[3,4-d]pyrimidin-4-ylthio)acetyl)-1,3,4-thiadiazol-2-yl)methyl)pivalamide], the IC50 fell in the range of 100 to 500 nM in assay [2] and 500 to 1000 nM in assay [3].

In the case of `Cc1nc(SCC(=O)c2ccc(CNC(=O)CO)s2)c2cc(N3CCC(F)(F)C3)ccc2n1` [Compound 84, N-((5-(2-((6-(3,3-difluoropyrrolidin-1-yl)-2-methylquinazolin-4-yl)thio)acetyl)thiophen-2-yl)methyl)-2-hydroxyacetamide], the IC50 in assay [1] is not above 100 nM.

On to `O=C(CSc1nc(C(F)(F)F)nc2ncccc12)c1ccc(CNS(=O)(=O)CC(F)(F)F)s1` [Compound 123, 2,2,2-trifluoro-N-((5-(2-((2-(trifluoromethyl)pyrido[2,3-d]pyrimidin-4-yl)thio)acetyl)thiophen-2-yl)methyl)ethane-1-sulfonamide], for which the IC50 in assay [1] was not above 100 nM.

With `Cc1nc(SCC(=O)c2ccc(CNC(=O)CO)s2)c2cc(NCC3CC3)ccc2n1` [Compound 78, N-((5-(2-((6-((cyclopropylmethyl)amino)-2-methylquinazolin-4-yl)thio)acetyl)thiophen-2-yl)methyl)-2-hydroxyacetamide], the IC50 in assay [1] was not above 100 nM.

Take `Cn1ncc2c(SCC(=O)c3ccc(CNC(=O)Cc4ccccc4)s3)ncnc21` [Example 32, N-((5-(2-((1-methyl-1H-pyrazolo[3,4-d]pyrimidin-4-yl)thio)acetyl)thiophen-2-yl)methyl)-2-phenylacetamide]: the IC50 in assay [2] was not above 100 nM; in assay [3], more than 10000 nM.

Take `COc1ccc2nc(C(F)F)nc(SCC(=O)c3ccc(CNC(=O)CO)s3)c2c1` [Compound 139, N-((5-(2-((2-(difluoromethyl)-6-methoxyquinazolin-4-yl)thio)acetyl)thiophen-2-yl)methyl)-2-hydroxyacetamide]: the IC50 in assay [1] was in the range of 100 to 500 nM.

Consider `Cn1ncc2c(SCC(=O)c3ncc(CNC(=O)C(C)(C)C)s3)ncnc21` [Example 27, N-((2-(2-((1-methyl-1H-pyrazolo[3,4-d]pyrimidin-4-yl)thio)acetyl)thiazol-5-yl)methyl)pivalamide], for which the IC50 in assay [1] is 100 to 500 nM.
